Assay results from patent US20250313575A1, “MACROCYCLES AS LRRK2 INHIBITORS, PHARMACEUTICAL COMPOSITIONS, AND USES THEREOF” (Merck Sharp & Dohme LLC, priority 2022, published 2025).

Target: GST-tagged truncated human mutant G2019S LRRK2 (Homo sapiens (Human), UniProt Q5S007, G2019S)
Assay: LRRK2 G2019S Km ATP LanthaScreen assay
Type: biochemical
Conditions: G2019S LRRK2, 134 μM ATP (Km ATP), LRRKtide substrate
Experimental: Unless otherwise noted, all reactions are magnetically allowed to stir, diethyl ether used in the experiments described below is Fisher ACS certified material stabilized with BHT, and “concentrated” and/or “solvent removed under reduced pressure” means evaporating the solvent from a solution or mixture using a rotary evaporator or vacuum pump. Unless otherwise noted, flash chromatography is carried out on a Teledyne Isco (Lincoln, NE), Analogix (Burlington, WI), or Biotage (Stockholm, SWE) automated chromatography system using a commercially available cartridge as the column. Columns may be purchased from Teledyne Isco, Analogix, Biotage, Varian (Palo Alto, CA), or Supelco (Bellefonte, PA) and are usually filled with silica gel as the stationary phase. Reverse phase prep-HPLC conditions, where used, can be found at the end of each experimental section. Aqueous solutions were concentrated on a Genevac (Ipswich, ENG) or by freeze-drying/lyophilization. Unless otherwise noted, all LRRK2 pIC50 data presented in tables refers to the LRRK2 G2019S Km ATP LanthaScreen™ assay (Life Technologies Corp., Carlsbad, CA) that is described in the Biological Assay section.
The LRRK2 kinase activity reported herein as IC50 values was determined with LanthaScreen™ technology from Life Technologies Corporation (Carlsbad, CA) using GST-tagged truncated human mutant G2019S LRRK2 in the presence of the fluorescein-labeled peptide substrate LRRKtide, also from Life Technologies. The data presented for the […] depending on the specific conditions and reagents used. Assays were performed in the presence of 134 μM ATP (Km ATP). Upon completion, the assay was stopped and phosphorylated substrate detected with a terbium (Tb)-labeled anti-pERM antibody (cat. no. PV4898). The compound dose response was prepared by diluting a 10 mM stock of compound to a maximum concentration of 9.99 μM in 100% dimethylsulfoxide followed by custom fold serial dilution in dimethylsulfoxide nine times. Twenty nanoliters of each dilution was spotted via a Labcyte Echo onto a 384-well black-sided plate (Corning 3575) followed by 15 μl of a 1.25 nM enzyme solution in 1× assay buffer (50 mM Tris pH 8.5, 10 mM MgCl2, 0.01% Brij-35, 1 mM EGTA, 2 mM dithiothreitol, 0.05 mM sodium orthovanadate). Following a 15-minute incubation at room temperature, the kinase reaction was started with the addition of 5 μl of 400 nM fluorescein-labeled LRRKtide peptide substrate and 134 μM ATP solution in 1× assay buffer. The reaction was allowed to progress at ambient temperature for 90 minutes. The reaction was then stopped by the addition of 20 μl of TR-FRET Dilution Buffer (Life Technologies, Carlsbad, CA) containing 2 nM Tb-labeled anti-phospho LRRKtide antibody and 10 mM EDTA (Life Technologies, Carlsbad, CA). After an incubation of 1 h at room temperature, the plate was read on an EnVision multimode plate reader (Perkin Elmer, Waltham, MA) with an excitation wavelength of 337 nm (Laser) and a reading emission at both 520 and 495 nm. Compound IC50s were interpolated from nonlinear regression best fits of the log of the final compound concentration, plotted as a function of the 520/495-nm emission ratio using Activity base. Abase uses a 4 parameter (4P) logistic fit based on the Levenberg-Marquardt algorithm.

GST-tagged truncated human mutant G2019S LRRK2, sequence (Q5S007 970-2527 G2019S): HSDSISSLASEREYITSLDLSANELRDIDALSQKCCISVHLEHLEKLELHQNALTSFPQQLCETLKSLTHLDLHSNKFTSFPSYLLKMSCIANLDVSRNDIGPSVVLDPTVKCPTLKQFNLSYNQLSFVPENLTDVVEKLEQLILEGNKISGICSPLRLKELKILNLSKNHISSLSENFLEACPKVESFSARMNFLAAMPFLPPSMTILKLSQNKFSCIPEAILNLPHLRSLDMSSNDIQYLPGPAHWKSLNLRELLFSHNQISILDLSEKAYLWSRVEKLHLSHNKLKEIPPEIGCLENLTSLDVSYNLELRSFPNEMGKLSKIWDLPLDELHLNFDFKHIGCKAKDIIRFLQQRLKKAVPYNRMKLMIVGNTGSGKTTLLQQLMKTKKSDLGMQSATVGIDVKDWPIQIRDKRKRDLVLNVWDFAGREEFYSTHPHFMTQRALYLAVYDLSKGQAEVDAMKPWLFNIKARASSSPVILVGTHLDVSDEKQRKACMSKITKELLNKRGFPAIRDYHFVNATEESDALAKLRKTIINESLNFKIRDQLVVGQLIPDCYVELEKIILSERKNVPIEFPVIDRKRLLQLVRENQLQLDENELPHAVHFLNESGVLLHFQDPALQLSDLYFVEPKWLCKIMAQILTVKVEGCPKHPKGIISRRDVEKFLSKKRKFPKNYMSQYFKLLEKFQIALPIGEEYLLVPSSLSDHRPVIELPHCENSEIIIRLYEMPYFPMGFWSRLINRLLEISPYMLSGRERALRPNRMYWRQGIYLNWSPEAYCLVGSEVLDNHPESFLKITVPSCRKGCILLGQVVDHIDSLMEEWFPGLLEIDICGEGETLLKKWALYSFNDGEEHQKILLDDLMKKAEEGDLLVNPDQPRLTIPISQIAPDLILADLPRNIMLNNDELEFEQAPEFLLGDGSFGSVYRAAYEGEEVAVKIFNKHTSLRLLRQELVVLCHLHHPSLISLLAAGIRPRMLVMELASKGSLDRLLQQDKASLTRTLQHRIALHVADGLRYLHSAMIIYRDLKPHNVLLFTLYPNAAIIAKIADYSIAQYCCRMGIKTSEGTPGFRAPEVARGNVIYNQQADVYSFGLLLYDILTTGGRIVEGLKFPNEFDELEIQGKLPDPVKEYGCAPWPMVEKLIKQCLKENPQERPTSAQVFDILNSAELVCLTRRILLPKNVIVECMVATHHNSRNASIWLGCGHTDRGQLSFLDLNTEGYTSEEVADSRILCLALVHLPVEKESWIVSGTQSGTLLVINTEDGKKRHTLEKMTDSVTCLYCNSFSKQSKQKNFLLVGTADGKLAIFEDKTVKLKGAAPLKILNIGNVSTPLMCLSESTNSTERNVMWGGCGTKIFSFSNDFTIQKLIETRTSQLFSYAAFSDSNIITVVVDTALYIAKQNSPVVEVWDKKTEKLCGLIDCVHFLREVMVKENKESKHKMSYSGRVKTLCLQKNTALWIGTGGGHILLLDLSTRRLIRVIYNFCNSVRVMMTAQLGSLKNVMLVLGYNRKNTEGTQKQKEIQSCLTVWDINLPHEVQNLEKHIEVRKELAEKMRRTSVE

SMILES | LRRK2 pIC50
Cc1nn(C2CCC2)c2c1OC[C@@H]1CN(CCO1)c1nc(ncc1C(F)(F)F)N2 (single isomer, unassigned) [Ex-21.2, (6R)- or (6S)-1-cyclobutyl-3-methyl-12-(trifluoromethyl)-1,5,6,8,9,16-hexahydro-11,15-(azeno)-6,10-methanopyrazolo[4,3-e][1,4]dioxa[7,9,13]triazacyclopentadecine] | 8.07
Cc1nn(C2CCC2)c2c1OC1COC[C@@H]1CNc1nc(ncc1Cl)N2 (stereo partly drawn) [Ex-2.84, (11aR,14aR)- or (11aS,14aS) 8-chloro-3-cyclobutyl-1-methyl-3,4,10,11,11a,12,14,14a-octahydro-5,9-(azeno)furo[3,4-1]pyrazolo[4,3-b][1]oxa[4,6,10]triazacyclotridecine] | 8.77
Cc1nn(C)c2c1OC[C@@H]1CN(C[C@H]1C)c1nc(ncc1C(F)(F)F)N2 [Ex-19.1] | >10.09
COC(=O)c1nn(C2CCC2)c2c1OC[C@@H]1COC[C@H]1Nc1nc(ncc1C(F)(F)F)N2 [Ex-5.6, methyl (10aS,13aS)-3-cyclobutyl-8-(trifluoromethyl)-3,4,10a,11,13a,14-hexahydro-10H,13H-5,9-(azeno)furo[3,4-k]pyrazolo[4,3-b][1]oxa[4,6,10]triazacyclotridecine-1-carboxylate] | 9.80
CC(C)n1nc(C2CC2)c2c1Nc1ncc(C(F)(F)F)c(n1)N[C@@H]1COC[C@H]1CO2 [Ex-2.57, (10aS,13aS)-1-cyclopropyl-3-isopropyl-8-(trifluoromethyl)-3,4,10a,11,13a,14-hexahydro-10H,13H-5,9-(azeno)furo[3,4-k]pyrazolo[4,3-b][1]oxa[4,6,10]triazacyclotridecine] | 9.98
COC1CC(n2nc(C)c3c2Nc2ncc(Cl)c(n2)N[C@@H]2CC[C@H]2CO3)C1 (stereo partly drawn) [Ex-2.77, (10aR,12aR)-8-chloro-3-(3-methoxycyclobutyl)-1-methyl-3,4,10,10a,11,12,12a,13-octahydro-5,9-(azeno)cyclobuta[k]pyrazolo[4,3-b][1]oxa[4,6,10]triazacyclotridecine] | >10.09
Cc1nn(C2CCC2)c2c1CC[C@@H]1COC[C@H]1Nc1nc(ncc1C(F)(F)F)N2 (single isomer, unassigned) [Ex-12.1, (10aS,13aS)- or (10aR,13aR)-3-Cyclobutyl-1-methyl-8-(trifluoromethyl)-3,4,10a,11,13,13a,14,15-octahydro-10H-5,9-(azeno)furo[3,4-h]pyrazolo[4,3-l][1,3,7]triazacyclotridecine] | >10.09
FC(F)(F)c1cnc2nc1N[C@@H]1COC[C@H]1COc1cccc(Br)c1N2 [Ex-15.4, (3aS,16aS)-11-bromo-6-(trifluoromethyl)-3a,4,16,16a-tetrahydro-1H,3H,10H-5,9-(azeno)benzo[b]furo[3,4-k][1]oxa[4,6,10]triazacyclotridecine] | 9.12
Cc1nn(C2CCC2)c2c1OC1COC[C@H]1CNc1nc(ncc1C(F)(F)F)N2 (stereo partly drawn) [Ex-2.80, (11aR,14aR)-3-cyclobutyl-1-methyl-8-(trifluoromethyl)-3,4,10,11,11a,12,14,14a-octahydro-5,9-(azeno)furo[3,4-1]pyrazolo [4,3-b][1]oxa[4,6,10]triazacyclotridecine (11aS,14aS)-3-cyclobutyl-1-methyl-8-(trifluoromethyl)-3,4,10,11,11a,12,14,14a-octahydro-5,9-(azeno)furo[3,4-1]pyrazolo[4,3-b][1]oxa[4,6,10]triazacyclotridecine] | 7.57
Cn1nc(C2CC2)c2c1OCC1CCC1Nc1nc(ncc1C(F)(F)F)N2 [Ex-1.11, (10aR,12aR)- or (10aS,12aS)-3-cyclopropyl-1-methyl-8-(trifluoromethyl)-1,4,10,10a,11,12,- 12a,13-octahydro-5,9-(azeno)cyclobuta[k]pyrazolo[3,4-b][1]oxa[4,6,10]triazacyclotridecine] | >10.09
COC1CCC1n1nc(C)c2c1Nc1ncc(C(F)(F)F)c(n1)NC1COCC1CO2 [Ex-2.38, (10aS,13aS)-3-((1R,2R)-(10aS,13aS)-3-((1S,2R)-(10aS,13aS)-3-((1R,2S)-(10aS,13aS)-3-((1R,2R)-(10aR,13aR)-3-((1S,2R)-(10aR,13aR)-3-((1R,2S)-2-methoxycyclobutyl)-1-methyl-8-(trifluoromethyl)-3,4,10a,11,13a,14-hexahydro-10H,13H-5,9-(azeno)furo[3,4-k]pyrazolo[4,3-b][1]oxa[4,6,10]triazacyclotridecine] | 6.13
Cc1nn(C(C)C)c2c1OC[C@@H]1COC[C@H]1Nc1nc(ncc1Cl)N2 [Ex-2.54, (10aS,13aS)-8-chloro-3-isopropyl-1-methyl-3,4,10a, 11,13a,14--hexahydro-10H,13H-5,9-(azeno)furo[3,4-k]pyrazolo[4,3-b][1]oxa[4,6,10]triazacyclotridecine] | 8.57
Cc1nn(C2CCC2)c2c1OC[C@@H]1COC[C@H]1Nc1nc(ncc1C(F)(F)F)N2 [Ex-5.1, (10aS,13aS)-3-cyclobutyl-1-methyl-8-(trifluoromethyl)-3,4,10a,11,13a,14-hexahydro-10H,13H-5,9-(azeno)furo[3,4-k]pyrazolo[4,3-b][1]oxa[4,6,10]triazacyclotridecine] | >10.09
Cc1nn(C2CC2)c2c1OC[C@@H]1CC[C@H]1Nc1nc(ncc1C(F)(F)F)N2 [Ex-2.68, (10aR,12aR)-3-cyclopropyl-1-methyl-8-(trifluoromethyl)-3,4,10,10a,11,12,12a,13-octahydro-5,9-(azeno)cyclobuta[k]pyrazolo[4,3-b][1]oxa[4,6,10]triazacyclotridecine] | >10.09
Cc1nn(C2CCC2)c2c1OC[C@@H]1CC[C@H]1Nc1nc(ncc1C(F)(F)F)N2 [Ex-2.3, (10aR,12aR)- or (10aS,12aS)-3-Cyclobutyl-1-methyl-8-(trifluoromethyl)-3,4,10,10a,11,12,12a,13-octahydro-5,9-(azeno)cyclobuta[k]pyrazolo[4,3-b][1]oxa[4,6,10]triazacyclotridecine] | 9.12
Cc1nn(C2CCC2)c2c1OC[C@@H]1CC(F)(F)C[C@H]1Nc1nc(ncc1C(F)(F)F)N2 [Ex-4.2, 3-Cyclobutyl-12,12-difluoro-1-methyl-8-(trifluoromethyl)-3,4,10a,11,12,13,13a,14-octahydro-10H-5,9-(azeno)cyclopenta[k]pyrazolo[4,3-b][1]oxa[4,6,10]triazacyclotridecine] | 9.51
COC1CCC1n1nc(C)c2c1Nc1ncc(C(F)(F)F)c(n1)NC1COCC1CO2 [Ex-2.39, (10aS,13aS)-3-((1R,2R)-(10aS,13aS)-3-((1S,2R)-(10aS,13aS)-3-((1R,2S)-(10aS,13aS)-3-((1R,2R)-(10aR,13aR)-3-((1S,2R)-(10aR,13aR)-3-((1R,2S)-2-methoxycyclobutyl)-1-methyl-8-(trifluoromethyl)-3,4,10a,11,13a,14-hexahydro-10H,13H-5,9-(azeno)furo[3,4-k]pyrazolo[4,3-b][1]oxa[4,6,10]triazacyclotridecine] | 6.32
CC(C)c1nn(C(C)(C)CO)c2c1N(C)c1ncc(C(F)(F)F)c(n1)N[C@H](C)CCO2 [Ex-9.1, (R)-2-(3-isopropyl-4,11-dimethyl-8-(trifluoromethyl)-10,11,12,13-tetrahydro-5,9-(azeno)pyrazolo[3,4-b][1]oxa[4,6,10]triazacyclotridecin-1 (4H)-yl)-2-methylpropan-1-ol] | 6.11
